Measured values from article PMC4569415, “Pro-Oxidant Activity of Amine-Pyridine-Based Iron Complexes Efficiently Kills Cancer and Cancer Stem-Like Cells” (PLoS ONE, 2015).
Where two headings read alike, the source gives them in different places.

Assays:
[1] = system: CAPAN-1 cells; experiment: MTT cytotoxicity assay; type: cell-based, human; details: for viability at 10 µM / IC50 / viability at 5 µM: Homo sapiens; for viability at 10 µM: CAPAN-1, compound 10 μmol/L; for viability at 10 µM / viability at 5 µM: read-out: CAPAN-1 cell viability; for IC50: CAPAN-1, MTT, 48 h of compound exposure; for viability at 5 µM: CAPAN-1, compound 5 μmol/L
Description: (§1) The cytotoxic activity of the compounds was determined by MTT reduction assay as described. Compounds were diluted in Milli-Q water to obtain 1 mmol/L stock solutions. Appropriate aliquots of these solutions were diluted in the corresponding cell culture medium to obtain the final working concentrations. Aliquots of 5000 1BR3G cells, 6000 MCF-7, 6000 PC-3 cells, 10 000 CAPAN-1 cells, 4000 MCF 10A cells, 4000 HMLE cells or 4000 CCD-18Co cells were seeded in 96-well plates, 24 h prior to the treatments. Hematological cell lines were seeded at 400 000 cells/mL. Cells were treated with the corresponding compound at concentrations ranging from 0 to 100 μmol/L for 48 h. Three replicates for each compound were used. The IC50 was established for each compound by standard non-linear regression and curve fitting using GraphPad Prism (Graph Pad software Inc., La Jolla, CA, USA).

[2] = system: MCF-7 cells; experiment: MTT cytotoxicity assay; type: cell-based, human; details: for IC50: Homo sapiens, MCF7, MTT, 48 h of compound exposure
Description: as §1

[3] = Hemolytic assay; type: cell-based; details: human, erythrocyte suspension of fresh human blood (5% vol/vol)
Description: The hemolytic activity of the compounds at 100 μmol/L was evaluated by determining hemoglobin release from erythrocyte suspensions of fresh human blood (5% vol/vol) as described.

[4] = system: CS-like HMLER-shEcad cells; experiment: MTT cytotoxicity assay in cancer stem-like cells; type: cell-based, human; details: Homo sapiens, 48 h
Description: as §1
(§2) Fig 2 Cell viability assay. (A) Cytotoxic activity of compounds 1, 2, and 5 against cancer cells. The indicated cell lines were treated for 48 h with ligands (10 μmol/L) and cell viability was measured with the MTT assay. Data represents the percentage of viable cells relative to untreated cells (control). (B) Cytotoxicity of doxorubicin and compounds 1, 2 and 5 against CS-like cells. CS-like HMLER-shEcad cells and non-CS-like HMLER isogenic parental cells were treated for 48 h with graded concentrations of doxorubicin, 1, 2 and 5. Cell viability was measured with the MTT assay. For each treatment, the percentage of viable cells relative to untreated cells is indicated. Data represents the mean±SD of 3 independent experiments performed in triplicate.

[5] = system: HMLER cells; experiment: MTT cytotoxicity assay in non-CS-like parental cells; type: cell-based; details: Homo sapiens, 48 h
Description: as §1, §2

[6] = system: tumor (PC-3, Z-138 and JURKAT) cell lines; experiment: MTT cytotoxicity assay, tumor cell selection; type: cell-based; details: Homo sapiens, range over PC-3, Z-138 and JURKAT, 48 h, read-out: IC50 values against tumor cells (range)
Description: as §1

[7] = system: human leukemia, lymphoma and glioma cancer cells; experiment: MTT cell viability at 10 μmol/L, cell line panel; type: cell-based; details: 48 h
Description: as §1, §2

[8] = system: CAPAN-1 cells; experiment: ROS measurement with H2DCFDA; type: cell-based, human; details: for fold increase of ROS levels: 5 h; for H2DCFDA fluorescence (ROS): 5.8 at 0 μmol/L; for reduction of compound-induced ROS levels by NAC: CAPAN-1, NAC 5 mmol/L
Description: (§3) Cellular ROS content was determined using the 2′,7′-dichlorodihydrofluorescein diacetate probe (H2DCFDA). Cells were seeded in 24-well plates (50 000 cells/well) in phenol red-free DMEM 24 h prior to treatments. Cells were treated with different concentrations of compound 1, 2 and 5 (2.5, 5 or 10 μmol/L) or vehicle alone as a control, for 5 or 24 hours at 37°C. In some experiments, cells were co-treated with the compounds plus 5 mmol/L NAC. After treatments, cells were washed with PBS and incubated with 1 μmol/L H2DCF-DA in PBS for 30 minutes in the dark. After washing, cells were collected with trypsin and analyzed by flow cytometry using a FACS-Calibur flow cytometer (Becton-Dickinson®, Immunofluorometry Systems, Mountain View, CA, USA). The geometric mean fluorescence intensity of 10 000 cells was established using CellQuestTM software (Becton Dickinson). The fluorescence fold-increase versus untreated cells was determined for each treatment.

[9] = system: CAPAN-1 cells; experiment: Cellular labile iron pool with calcein-AM; type: cell-based, human; details: CAPAN-1, 10 μmol/L, 24 h
Description: The cellular labile iron pool was determined with calcein-AM. CAPAN-1 cells (125 000 cells/ well) were seeded in 24-well plates and incubated for 24 h. Then, cells were treated for 24 h with 10 μmol/L of compound 1, 2 or 5 at 37°C. In some experiments, cells were incubated for 2 h with 100 μmol/L of DFO or 100 μmol/L FeCl2. Cells exposed to the vehicle alone were used as a control. After treatments, cells were washed with PBS and incubated with calcein-AM (0.25 μmol/L) for 30 min at 37°C in the dark. Subsequently, cells were washed and collected with trypsin and the geometric mean fluorescence intensity of 10 000 cells was determined by flow cytometry as described.

[10] = system: MCF-7 cells; experiment: Cellular DNA damage, p-H2A.X flow cytometry; type: cell-based, human; details: MCF-7, 10 μmol/L, time-dependent
Description: DNA damage was assessed by monitoring the intensity of p-H2A.X fluorescence using flow cytometry. Briefly, cells were collected with trypsin, washed in PBS and fixed in 3.7% formaldehyde for 15 min on ice. Cells were then permeabilised with 0.2% v/v Triton-X100 for 10 min and incubated with 1:400 rabbit anti-p-(S139)-H2A.X antibody (Cell Signaling Technology, Danvers, MA) for 30 min on ice. After washing in 0.1% Triton-X100 in PBS, cells were incubated with 1:400 anti-rabbit Alexa 555-conjugated antibody (Jackson ImmunoResearch, Newmarket, UK) for 20 min on ice. Analysis was carried out in a FACScan flow cytometer with Flowing software.

[11] = system: JURKAT cells; experiment: ROS measurement with H2DCFDA; type: cell-based, human; details: 10 μmol/L, 24 h
Description: as §3

[12] = system: MCF-7 cells; experiment: ROS measurement with H2DCFDA; type: cell-based, human; details: MCF-7, 10 μmol/L, 24 h
Description: as §3

[13] = compound 10 μmol/L, FeCl2 100 μmol/L pre-incubation
[14] = compound 5 μmol/L, pretreated with 100 μmol/L FeCl2 for 2 h

Row | SMILES | IC50 [1] | IC50 [2] | hemolysis at 100 µM [3] | IC50 [4] | IC50 [5] | IC50 [6] | antiproliferative activity at 10 μmol/L [7] | fold increase of ROS levels ([8]; CAPAN-1, 2.5 μmol/L) | fold increase of ROS levels ([8]; CAPAN-1, 5 μmol/L) | fold increase of ROS levels ([8]; CAPAN-1, 10 μmol/L) | reduction of compound-induced ROS levels by NAC [8] | calcein fluorescence intensity, % of untreated cells [9] | increase in phosphorylated H2A.X [10] | also measured
1 | c1ccc(CN2CCC[C@H]2[C@@H]2CCCN2Cc2ccccn2)nc1 [Compound 1] | 9.9 ± 1.01 µM | 7.4 ± 0.2 µM | 0% | 5.3 ± 0.7 µM | 6.5 ± 0.4 µM | 4.8 to 15.1 µM | high antiproliferative activity | 1.73 fold | 2.01 fold | 2.61 fold | 31.1% | 141.4±19.5% | three fold | viability at 10 µM ([1]; presence of NAC): 45.2 ± 5.4%; viability at 10 µM ([1]; without NAC): 40.7 ± 6.9%; enhancement of cytotoxicity by FeCl2 pretreatment, CAPAN-1 [1, 13]: 25.5%; enhancement of cytotoxicity by FeCl2 pretreatment, MCF-7 [2, 13]: 58.6%; H2DCFDA fluorescence (ROS) ([8]; CAPAN-1, 2.5 μmol/L, 24 h): 10.9; H2DCFDA fluorescence (ROS) ([8]; CAPAN-1, 5 μmol/L, 24 h): 11.79; H2DCFDA fluorescence (ROS) ([8]; CAPAN-1, 10 μmol/L, 24 h): 32.6
2 | CN1CCN(Cc2ccccn2)CCN(Cc2ccccn2)CC1 [Compound 5] | 7.9 ± 0.5 µM | 7.7 ± 0.3 µM | 0% | 8.6 ± 0.5 µM | 5.1 ± 0.1 µM | 2.9 to 7.7 µM | high antiproliferative activity | – | – | – | – | 144.6±13.8% | four fold | effect of NAC on cytotoxicity ([1]; CAPAN-1, NAC 5 mmol/L): no protective effect of NAC; intracellular ROS levels vs untreated cells ([8]; CAPAN-1, 10 μmol/L, 24 h): 2.4 fold
3 | CN(C)c1ccnc(CN2CCC[C@H]2[C@@H]2CCCN2Cc2cc(N(C)C)ccn2)c1 [Compound 2] | 6 ± 0.7 µM | 3.7 ± 0.4 µM | 0% | 6.8 ± 0.1 µM | 6.6 ± 0.3 µM | 3.8 to 7.2 µM | high antiproliferative activity | 1.39 fold | 1.66 fold | 2.53 fold | 26.8% | 136.8±11.7% | three fold | viability at 5 µM ([1]; absence of NAC): 23.9 ± 2.9%; viability at 5 µM ([1]; presence of 5 mmol/L NAC): 33.6 ± 3.8%; increase in cell survival by NAC ([1]; compound 5 μmol/L, 5 mmol/L NAC): 40.6%; reduction in CAPAN-1 cell viability in FeCl2-pretreated cells [1, 14]: 37.7%; reduction in MCF-7 cell viability in FeCl2-pretreated cells [2, 14]: 51.8%; ROS induction with FeCl2 co-incubation ([8]; CAPAN-1, compound 10 μmol/L 24 h, FeCl2 100 μmol/L co-incubation): abolished ROS induction; increase in ROS levels in FeCl2-pretreated vs non-pretreated cells ([8]; CAPAN-1, compound 10 μmol/L 24 h, FeCl2 100 μmol/L pre-incubation): 1.5 fold; ROS levels versus control cells [11]: 1.94 folds; increase in ROS levels [12]: 7 fold
